Data on 16 molecules can be found in patent US10597399B2, “Substituted triazolopiperazine PARP inhibitor, preparation method therefor and use thereof” (Shanghai Institute of Materia Medica, Chinese Academy of …, priority 2015, dated 2020).

Series [1] relates to HCT-15 (colon cancer). As to the kind of experiment: Proliferation of different tumor cells: HCT-15. The note with it: for IC50: Homo sapiens.
For series [2], the system named is Capan-1/AZD2281 drug resistant cell. As to the kind of experiment: cells. The following applies: Homo sapiens.
The test system of series [3] is UWB1.289 (ovarian cancer). Kind of series: Proliferation of different tumor cells: UWB1.289. The following applies: for IC50: UWB1289.
The test system of series [4] is MDA-MB-436 cells (BRCA1 gene defect). As to the kind of experiment: Inhibition of proliferation of MDA-MB-436 cells (CCK-8 and SRB method). The following applies: Homo sapiens, MDA-MB-436, read-out: Cellular IC50 (nM) MDA-MB-436 (BRCA1gene defect). In general terms: Formazan colour is commonly taken as a measure of viable cells.
Series [5] relates to Capan-1 (pancreatic cancer). As to the kind of experiment: Proliferation of different tumor cells: Capan-1. The following applies: Homo sapiens.
Series [6] deals with HCC-1937 (breast cancer). Kind of series: Proliferation of different tumor cells: HCC-1937. The note with it: for IC50: Homo sapiens, HCC1937.
Series [7] concerns SW-620 (colon cancer). Kind of series: Proliferation of different tumor cells: SW-620. The following applies: for IC50: Homo sapiens.
The subject of series [8] is Capan-1 cells (BRCA2 gene defect). Kind of series: Inhibition of proliferation of Capan-1 cells (CCK-8 and SRB method). The following applies: Homo sapiens, CAPAN-1, read-out: Cellular IC50 (nM) Capan-1 (BRCA2gene defect).
For series [9] the following is noted: background statement; cited from earlier work.
In series [10] the test system is Capan-1 parental cell. As to the kind of experiment: Anti-proliferative effect on Capan-1 parental cell. The note with it: Homo sapiens.
For series [11], the target named is PARP-1 (Homo sapiens (Human), UniProt P09874). The following applies: PARP-1 enzyme.
Sequence of PARP-1 (P09874 whole entry): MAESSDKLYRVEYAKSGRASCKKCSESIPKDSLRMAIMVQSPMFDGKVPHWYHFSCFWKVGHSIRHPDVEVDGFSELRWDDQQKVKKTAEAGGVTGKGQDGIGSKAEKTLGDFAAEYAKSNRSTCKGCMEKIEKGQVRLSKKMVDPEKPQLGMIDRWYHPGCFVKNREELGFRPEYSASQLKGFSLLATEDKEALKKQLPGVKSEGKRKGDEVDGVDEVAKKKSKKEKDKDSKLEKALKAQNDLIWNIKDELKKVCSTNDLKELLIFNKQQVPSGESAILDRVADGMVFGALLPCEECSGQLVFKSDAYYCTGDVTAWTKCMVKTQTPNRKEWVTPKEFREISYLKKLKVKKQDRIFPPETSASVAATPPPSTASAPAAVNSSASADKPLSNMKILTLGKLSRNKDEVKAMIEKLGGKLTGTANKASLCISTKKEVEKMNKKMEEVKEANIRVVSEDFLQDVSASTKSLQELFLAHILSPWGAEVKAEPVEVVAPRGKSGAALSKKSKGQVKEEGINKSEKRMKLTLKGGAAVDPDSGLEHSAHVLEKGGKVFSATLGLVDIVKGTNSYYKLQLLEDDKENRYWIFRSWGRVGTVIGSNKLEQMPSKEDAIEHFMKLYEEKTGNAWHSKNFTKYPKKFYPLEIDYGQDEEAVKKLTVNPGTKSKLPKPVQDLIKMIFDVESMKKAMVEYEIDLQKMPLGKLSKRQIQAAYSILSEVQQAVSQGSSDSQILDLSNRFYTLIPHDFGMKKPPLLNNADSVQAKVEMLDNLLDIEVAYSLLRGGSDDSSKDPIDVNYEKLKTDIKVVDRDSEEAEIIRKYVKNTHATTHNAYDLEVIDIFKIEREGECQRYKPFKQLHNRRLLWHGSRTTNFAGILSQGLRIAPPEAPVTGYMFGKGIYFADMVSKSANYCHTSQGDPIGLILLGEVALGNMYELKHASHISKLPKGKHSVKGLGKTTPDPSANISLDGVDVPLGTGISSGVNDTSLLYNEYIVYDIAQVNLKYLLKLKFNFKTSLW

Usually IC50 stands for the concentration needed to halve the response being measured. As usually defined, the bioavailability is dose-corrected exposure relative to a reference, in per cent. With `O=C(c1cc(Cc2n[nH]c(=O)c3ccccc23)ccc1F)N1CCN(C(=O)C2CC2)CC1` [AZD2281, olaparib, reference compound], the IC50 is greater than 10000 nM in series [1]; 41100 ± 1590 nM in series [2]; 177 nM in [3]; roughly 200 nM in series [4]; 653 nM in [5]; 7390 nM in series [6]. For the same molecule, the IC50 was 5840 nM in series [7], roughly 500 nM in [8] and 2899 ± 17 nM in series [10]. Besides, the bioavailability in [9] was less than 15%. In addition, in series [9], the “in vivo action time and half-life time” value is less than 1 h.
For the molecule `CC1CN(C(=O)c2cc(Cc3n[nH]c(=O)c4ccccc34)ccc2F)Cc2nnc(C3CCNCC3)n21` (stereo not drawn) [Compound S3], the IC50 in series [4] and in series [8] was less than 200 nM each time.
For the molecule `CC1CN(C(=O)c2cc(Cc3n[nH]c(=O)c4ccccc34)ccc2F)Cc2nnc(-c3cccs3)n21` (stereo not drawn) [Compound S7], the IC50 in [4] and in [8] was less than 5 nM throughout.
In the case of `CC1CN(C(=O)c2cc(Cc3n[nH]c(=O)c4ccccc34)ccc2F)Cc2nnc(-c3c[nH]cn3)n21` (stereo not drawn) [Compound S8], the IC50 in series [4] and in series [8] was less than 20 nM throughout.
As for `CC1CN(C(=O)c2cc(Cc3n[nH]c(=O)c4ccccc34)ccc2F)Cc2nnc(-c3ncc[nH]3)n21` (stereo not drawn) [Compound S9], the IC50 was less than 5 nM in series [4] and less than 20 nM in series [8].
For `CC1CN(C(=O)c2cc(Cc3n[nH]c(=O)c4ccccc34)ccc2F)Cc2nnc(-c3nccn3C)n21` (stereo not drawn) [Compound S10] the same measures were less than 20 nM and less than 20 nM.
Consider `CC1CN(C(=O)c2cc(Cc3n[nH]c(=O)c4ccccc34)ccc2F)Cc2nnc(-c3cncs3)n21` (stereo not drawn) [Compound S11], for which the IC50 in series [4] and in [8] was less than 20 nM each time.
Regarding `CC1CN(C(=O)c2cc(Cc3n[nH]c(=O)c4ccccc34)ccc2F)Cc2nnc(-c3ccsc3)n21` (stereo not drawn) [Compound S12], the IC50 in series [4] and in [8] was less than 20 nM throughout.
For `CC1CN(C(=O)c2cc(Cc3n[nH]c(=O)c4ccccc34)ccc2F)Cc2nnc(-c3ccccn3)n21` (stereo not drawn) [Compound S13], the “Ratio IC50 AZD/IC50 S13” value in series [1] came to 70; in series [3] (UWB1.289), 59; in [6] (HCC-1937), 338; in series [7] it was 130. Besides, the half-maximal inhibitory concentration (IC50) is 143 nM in series [1]; less than 0.256 nM in series [2]; 3 nM in series [3]; less than 5 nM in [4]; 1.04 nM in series [5]; 21.9 nM in series [6]. For the same molecule, the IC50 in series [7] was 45 nM; in [8] it was less than 5 nM; in series [10], less than 0.256 nM.
With `CC1CN(C(=O)c2cc(Cc3n[nH]c(=O)c4ccccc34)ccc2F)Cc2nnc(-c3cnn(C)c3)n21` (stereo not drawn) [Compound S14], the IC50 in series [4] and in [8] was less than 20 nM each time.
As for `CC1CN(C(=O)c2cc(Cc3n[nH]c(=O)c4ccccc34)ccc2F)Cc2nnc(-c3nccs3)n21` (stereo not drawn) [Compound S15], the IC50 in series [4] and in [8] was less than 5 nM in each case.
For `CC1CN(C(=O)c2cc(Cc3n[nH]c(=O)c4ccccc34)ccc2F)Cc2nnc(-c3ccco3)n21` (stereo not drawn) [Compound S16], the IC50 in series [4] and in [8] was less than 5 nM throughout.
Turning to `CC1CN(C(=O)c2cc(Cc3n[nH]c(=O)c4ccccc34)ccc2F)Cc2nnc(-c3ccc(CO)o3)n21` (stereo not drawn) [Compound S18], the IC50 in series [4] and in series [8] was less than 5 nM each time.
Consider `CC1CN(C(=O)c2cc(Cc3n[nH]c(=O)c4ccccc34)ccc2F)Cc2nnc(-c3cnccn3)n21` (stereo not drawn) [Compound S20], for which the IC50 in series [4] and in series [8] was less than 20 nM in each case.
For `CC1CN(C(=O)c2cc(Cc3n[nH]c(=O)c4ccccc34)ccc2F)Cc2nnc(-c3ncccc3F)n21` (stereo not drawn) [Compound S33], the IC50 in series [4] and in [8] was less than 20 nM throughout.
With `C[C@@H]1CN(C(=O)c2cc(Cc3n[nH]c(=O)c4ccccc34)ccc2F)Cc2nnc(-c3ccccn3)n21` [S13-(+)], in [11], the “activity of (+)-S13 relative to (−)-S13” value is reported as “twice”.
